Laboratory results published in patent publication US9849130B2 (KamTek, Inc., priority 2014, dated 2017).
In brackets after ≈: the same amount, converted by molar mass. Read-outs that look alike come from different tables or passages of the source.

How the values were obtained:
[1] = system: Clostridium difficile (CD) strains; test: microbe, parasite or virus in culture; type: cell-based
C. perfringens MH310 = test: microbe, parasite or virus in culture; type: cell-based
C. difficile = test: Minimum bactericidal concentration (MBC) against C. difficile; type: cell-based, Clostridium difficile
CD strains = test: In vitro activity of CFM + additional antimicrobial agent against CD (MIC alone/combination, FIC, ΣFIC); type: cell-based, Clostridium difficile; conditions: CFM + VAN; for MIC: Clostridioides difficile
Escherichia coli strains = test: MIC by microdilution in Mueller-Hinton broth against Escherichia coli strains; type: cell-based
Enterococcus faecalis = test: MIC by microdilution in Mueller-Hinton broth against Enterococcus faecalis strains; type: cell-based; conditions: Enterococcus faecalis
Enterococci faecium = test: MIC by microdilution in Mueller-Hinton broth against Enterococci faecium strains; type: cell-based, Enterococcus faecium
Fusobacterium = test: MIC by microdilution in Brucella broth against Fusobacterium; type: cell-based, Fusobacterium spp.
Bifidobacterium strains = test: MIC by microdilution in BHI broth against Bifidobacterium strains; type: cell-based, Bifidobacterium spp.; conditions: Bifidobacterium
Lactobacillus strains = test: MIC against Lactobacillus strains; type: cell-based, Lactobacillus spp.
[2] = system: Lachnospiraceae and related bacterial strains; test: MIC against Lachnospiraceae and related bacterial strains; type: cell-based, Lachnospiraceae spp.
C. difficile VPI10463 = conditions: Clostridioides difficile, C. difficile VPI10463
[3] = Clostridioides difficile, BAA1805
[4] = Test 13, CD strain BAA1805 (BI/NAP1/027)
[5] = Test 16, CD strain BAA1805 (BI/NAP1/027)

CN[C@H](CC(C)C)C(=O)N[C@H]1C(=O)N[C@@H](CC(N)=O)C(=O)N[C@H]2C(=O)N[C@H]3C(=O)N[C@H](C(=O)N[C@H](C(=O)O)c4cc(O)cc(O)c4-c4cc3ccc4O)[C@H](O)c3ccc(c(Cl)c3)Oc3cc2cc(c3O[C@@H]2O[C@H](CO)[C@@H](O)[C@H](O)[C@H]2O[C@H]2C[C@](C)(N)[C@H](O)[C@H](C)O2)Oc2ccc(cc2Cl)[C@H]1O [VAN, vancomycin]
MIC Range [1]: 0.25 to 2.0 µg/mL
MIC50 ([1]; Clostridioides difficile): 0.5 µg/mL (≈ 0.345 µM)
MIC90 ([1]; Clostridioides difficile): 2 µg/mL (≈ 1.38 µM)
MIC [1, 3]: 1 µg/mL (≈ 0.69 µM)
MIC (C. perfringens MH310): 0.25 µg/mL (≈ 0.173 µM)
MIC (C. perfringens MH310; Clostridium perfringens, MH310): 0.5 µg/mL (≈ 0.345 µM)
MBC/MIC ratio range (C. difficile): 1-4
MBC (C. difficile; [3]): 2 µg/mL (≈ 1.38 µM)
MIC (CD strains; BAA1805, read-out: MIC alone, Test 13, CD strain BAA1805 (BI/NAP1/027)): 0.5 µg/mL
MIC (CD strains; BAA1805, read-out: MIC alone, Test 16, CD strain BAA1805 (BI/NAP1/027)): 0.5 µg/mL
MIC (CD strains; read-out: MIC alone, Test 1, CD strain VPI 10463): 2 µg/mL
MIC (CD strains; read-out: MIC alone, Test 2, CD strain VPI 10463): 2 µg/mL
MIC (CD strains; read-out: MIC alone, Test 5, CD strain NR32889): 2 µg/mL
MIC (CD strains; read-out: MIC alone, Test 6, CD strain NR32890): 1 µg/mL
MIC (CD strains; read-out: MIC alone, Test 7, CD strain NR32885): 1 µg/mL
MIC (CD strains; read-out: MIC alone, Test 9, CD strain NR32885): 1 µg/mL
MIC (CD strains; read-out: MIC alone, Test 11, CD strain NR32885): 1 µg/mL
MIC (CD strains; read-out: MIC alone, Test 18, CD strain NR32888): 0.5 µg/mL
MIC (CD strains; read-out: MIC alone, Test 20, CD strain NR32888): 0.5 µg/mL
FIC (CD strains; Test 1, CD strain VPI 10463): 0.25
MIC combination (CD strains; Test 1, CD strain VPI 10463): 0.5 µg/mL
FIC (CD strains; Test 2, CD strain VPI 10463): 0.25
MIC combination (CD strains; Test 2, CD strain VPI 10463): 0.5 µg/mL
FIC (CD strains; Test 5, CD strain NR32889): 1
MIC combination (CD strains; Test 5, CD strain NR32889): 2 µg/mL
FIC (CD strains; Test 6, CD strain NR32890): 0.5
MIC combination (CD strains; Test 6, CD strain NR32890): 0.5 µg/mL
FIC (CD strains; Test 7, CD strain NR32885): 0.5
MIC combination (CD strains; Test 7, CD strain NR32885): 0.5 µg/mL
FIC (CD strains; Test 9, CD strain NR32885): 0.25
MIC combination (CD strains; Test 9, CD strain NR32885): 0.25 µg/mL
FIC (CD strains; Test 11, CD strain NR32885): 0.25
MIC combination (CD strains; Test 11, CD strain NR32885): 0.25 µg/mL
FIC (CD strains; [4]): 0.062
MIC combination (CD strains; [4]): 0.031 µg/mL
FIC (CD strains; [5]): 0.25
MIC combination (CD strains; [5]): 0.125 µg/mL
FIC (CD strains; Test 18, CD strain NR32888): 0.5
MIC combination (CD strains; Test 18, CD strain NR32888): 0.25 µg/mL
FIC (CD strains; Test 20, CD strain NR32888): 0.5
MIC combination (CD strains; Test 20, CD strain NR32888): 0.25 µg/mL
MIC (Escherichia coli strains; E. coli NR 6, Mueller-Hinton broth): >32 µg/mL
MIC (Escherichia coli strains; E. coli NR 8, Mueller-Hinton broth): >32 µg/mL
MIC (Escherichia coli strains; E. coli NR 96, Mueller-Hinton broth): >32 µg/mL
MIC (Escherichia coli strains; E. coli NR 104, Mueller-Hinton broth): >32 µg/mL
MIC (Escherichia coli strains; E. coli NR 17626, Mueller-Hinton broth): >32 µg/mL
MIC (Escherichia coli strains; E. coli NR 17627, Mueller-Hinton broth): >32 µg/mL
MIC (Escherichia coli strains; E. coli NR 17633, Mueller-Hinton broth): >32 µg/mL
MIC (Escherichia coli strains; E. coli NR 17647, Mueller-Hinton broth): >32 µg/mL
MIC (Escherichia coli strains; E. coli NR 17650, Mueller-Hinton broth): >32 µg/mL
MIC (Escherichia coli strains; E. coli NR 17661, Mueller-Hinton broth): >32 µg/mL
MIC (Escherichia coli strains; Escherichia coli): > 32 µg/mL
MIC (Escherichia coli strains; Escherichia coli strain NR 6, Mueller-Hinton broth): >32 µg/mL
MIC (Escherichia coli strains; Escherichia coli strain NR 8, Mueller-Hinton broth): >32 µg/mL
MIC (Escherichia coli strains; Escherichia coli strain NR 96, Mueller-Hinton broth): >32 µg/mL
MIC (Escherichia coli strains; Escherichia coli strain NR 17626, Mueller-Hinton broth): >32 µg/mL
MIC (Escherichia coli strains; Escherichia coli strain NR 17627, Mueller-Hinton broth): >32 µg/mL
MIC (Escherichia coli strains; Escherichia coli strain NR 17633, Mueller-Hinton broth): >32 µg/mL
MIC (Escherichia coli strains; Escherichia coli strain NR 17647, Mueller-Hinton broth): >32 µg/mL
MIC (Escherichia coli strains; Escherichia coli strain NR 17650, Mueller-Hinton broth): >32 µg/mL
MIC (Escherichia coli strains; Escherichia coli strain NR 17661, Mueller-Hinton broth): >32 µg/mL
MIC (Enterococcus faecalis; E. faecalis NR 31884): 2 µg/mL (≈ 1.38 µM)
MIC (Enterococcus faecalis; E. faecalis NR 31885): 2 µg/mL (≈ 1.38 µM)
MIC (Enterococcus faecalis; E. faecalis NR 31886): 1 µg/mL (≈ 0.69 µM)
MIC (Enterococcus faecalis; E. faecalis NR 31887): 1 µg/mL (≈ 0.69 µM)
MIC (Enterococcus faecalis; E. faecalis NR 31888): 2 µg/mL (≈ 1.38 µM)
MIC (Enterococci faecium; E. faecium NR 31909, Mueller-Hinton broth): >32 µg/mL
MIC (Enterococci faecium; E. faecium NR 31912, Mueller-Hinton broth): >32 µg/mL
MIC (Enterococci faecium; E. faecium NR 31915, Mueller-Hinton broth): >32 µg/mL
MIC (Enterococci faecium; E. faecium NR 31916, Mueller-Hinton broth): >32 µg/mL
MIC (Enterococci faecium; Enterococcus faecium): > 32 µg/mL
MIC (Fusobacterium): > 32 µg/mL
MIC (Fusobacterium; Fusobacterium): > 32 µg/mL
MIC (Bifidobacterium strains): 0.25 µg/mL (≈ 0.173 µM)
in vitro activity against Lactobacillus spp. (in words) (Lactobacillus strains): six strains susceptible and four resistant
susceptibility of Lachnospiraceae and related organisms (in words) [2]: susceptible
MIC ([2]; Clostridiales bacterium): 0.25 µg/mL (≈ 0.173 µM)
MIC (C. difficile VPI10463; VPI10463, Expt. 1, fecal extract (human feces 20% w/v in BHI)): 1 µg/mL (≈ 0.69 µM)
MIC (C. difficile VPI10463; VPI10463, Expt. 1, −fecal extract): 0.5 µg/mL (≈ 0.345 µM)
MIC (C. difficile VPI10463; VPI10463, Expt. 2, +fecal extract (human feces 20% w/v in BHI)): 0.5 µg/mL (≈ 0.345 µM)
MIC (C. difficile VPI10463; VPI10463, Expt. 2, −fecal extract): 0.5 µg/mL (≈ 0.345 µM)
